Data from PMC5021161 (Environmental and Molecular Mutagenesis, 2016).
Read-outs that look alike come from different tables or passages of the source.

Assays:
CDKN1A = format: cell-based, human
TK6 cells [1] = settings: for % MN: 2% Aroclor S9; for statistically significant % MN increase relative to controls: for at least one concentration
TK6 cells [2] = settings: for % Relative Survival: 2% Aroclor S9, 4 hr + 20 hr recovery
GADD45A = format: cell-based, human
[3] = test system: TGx‐28.65 biomarker genes; settings: for Dendogram TGx‐28.65 / NSC TGx‐28.65 / PCA TGx‐28.65: 2% Aroclor S9, 4 hr + 3-4 hr recovery
ATF3 = format: cell-based, human; settings: 2% Aroclor S9, 4 hr + 3-4 hr recovery
TK6 cells [4] = settings: 2% Aroclor S9, 4 hr + 20 hr recovery
TK6 cells [5] = settings: 1% BF/PB S9, ref Buick et al., 2015, cited from earlier work
[6] = test system: TGx‐28.65 biomarker genes; settings: 2015, cited from earlier work; for Dendogram TGx‐28.65 / NSC TGx‐28.65 / PCA TGx‐28.65: 1% BF/PB S9
[7] = test system: ATF3, CDKN1A, and GADD45A; assay: RT‐qPCR of the three stress response genes; format: cell-based, human; settings: 2% Aroclor‐induced S9
[8] = 2 μg/ml, 2% Aroclor S9, 4 hr + 3-4 hr recovery
[9] = 1 μg/ml, 2% Aroclor S9, 4 hr + 3-4 hr recovery
[10] = 20 μg/ml, 2% Aroclor S9, 4 hr + 3-4 hr recovery
[11] = 280 μg/ml, 2% Aroclor S9, 4 hr + 3-4 hr recovery
[12] = 1 mM, 2% Aroclor S9, 4 hr + 3-4 hr recovery
[13] = 5 mM, 2% Aroclor S9, 4 hr + 3-4 hr recovery
[14] = 10 mM, 2% Aroclor S9, 4 hr + 3-4 hr recovery

SMILES: Nc1ccc2cc3ccccc3cc2c1 [2‐Aminoanthracene]
- CDKN1A fold change vs vehicle control (+S9) (CDKN1A; [8]): 4.6 fold change
- % MN (TK6 cells [1]; 2 μg/ml, 4 hr + 20 hr recovery): 1.22%
- fold increase in % MN above vehicle + S9 control (TK6 cells [1]; high concentration, definitive study, 4 hr + 20 hr recovery): 1.8 fold
- % Relative Survival (TK6 cells [2]; 2 μg/ml): 46.78%
- % Relative Survival (TK6 cells [2]; 2 μg/ml, listed as 2‐aminoanthracene): 47%
- GADD45A fold change vs vehicle control (+S9) (GADD45A; [8]): 1.7 fold change
- Dendogram TGx‐28.65 ([3]; 2 μg/ml): +
- NSC TGx‐28.65 ([3]; 2 μg/ml): +
- PCA TGx‐28.65 ([3]; 2 μg/ml): +
- probability of being genotoxic (NSC, TGx‐28.65) ([3]; all concentrations): > 0.9
- classification using TGx‐28.65 ([3]; mid and high concentrations): genotoxic
- ATF3 fold change vs vehicle control (+S9) (ATF3; 2 μg/ml): 2.3 fold change
- % Apoptotic cells (TK6 cells [4]; 2 μg/ml): 18.48%

SMILES: O=[N+]([O-])c1ccc2c(c1)Cc1ccccc1-2 [2‐Nitrofluorene]
- % MN (TK6 cells [1]; 10 μM, 4 hr + 20 hr recovery): 1.48%
- % MN (TK6 cells [1]; 50 μM, 4 hr + 20 hr recovery): 2.23%
- % MN (TK6 cells [1]; 300 μM, 4 hr + 20 hr recovery): 3.13%
- Dendogram TGx‐28.65 ([3]; 10 μM): −
- NSC TGx‐28.65 ([3]; 10 μM): −
- PCA TGx‐28.65 ([3]; 10 μM): −
- Dendogram TGx‐28.65 ([3]; 50 μM): −
- NSC TGx‐28.65 ([3]; 50 μM): +
- PCA TGx‐28.65 ([3]; 50 μM): +
- Dendogram TGx‐28.65 ([3]; 300 μM): −
- NSC TGx‐28.65 ([3]; 300 μM): +
- PCA TGx‐28.65 ([3]; 300 μM): +
- classification by hierarchical cluster analysis (TGx‐28.65 genes) ([3]; all concentrations): non‐genotoxic
- classification using TGx‐28.65 ([3]; low concentrations): non‐genotoxic
- classification using TGx‐28.65 ([3]; mid and high concentrations): genotoxic
- % Apoptotic cells (TK6 cells [4]; 10 μM): 9.84%
- % Apoptotic cells (TK6 cells [4]; 50 μM): 12.62%
- % Apoptotic cells (TK6 cells [4]; 300 μM): 20.43%

SMILES: CC(=O)Nc1ccc(O)cc1 [Acetaminophen]
- concentration range in which toxic effects are observed (TK6 cells [1]; human): 3000 to 10000 µM

SMILES: O=P1(N(CCCl)CCCl)NCCCO1 (centres unmarked) [Cyclophosphamide]
- fold increase in % MN above vehicle + S9 control (TK6 cells [1]; human): 8 fold

SMILES: C[C@@H]1C[C@H]2[C@@H]3CCC4=CC(=O)C=C[C@]4(C)[C@@]3(F)[C@@H](O)C[C@]2(C)[C@@]1(O)C(=O)CO [Dexamethasone]
- % Apoptotic cells (TK6 cells [5]; 0.63 mM): 5.5%
- % Apoptotic cells (TK6 cells [5]; 1 mM): 12.2%
- Dendogram TGx‐28.65 ([6]; 0.63 mM, ref Buick et al.): −
- NSC TGx‐28.65 ([6]; 0.63 mM, ref Buick et al.): −
- PCA TGx‐28.65 ([6]; 0.63 mM, ref Buick et al.): −
- Dendogram TGx‐28.65 ([6]; 1 mM, ref Buick et al.): −
- NSC TGx‐28.65 ([6]; 1 mM, ref Buick et al.): −
- PCA TGx‐28.65 ([6]; 1 mM, ref Buick et al.): −

SMILES: c1ccc2c(c1)ccc1cc3c(ccc4ccccc43)cc12 [Dibenz[a,h]anthracene]
- CDKN1A fold change vs vehicle control (+S9) (CDKN1A; [9]): 1.2 fold change
- CDKN1A fold change vs vehicle control (+S9) (CDKN1A; [10]): 2.4 fold change
- CDKN1A fold change vs vehicle control (+S9) (CDKN1A; [11]): 4.2 fold change
- % MN (TK6 cells [1]; 1 μg/ml, 4 hr + 20 hr recovery): 2.16%
- % MN (TK6 cells [1]; 20 μg/ml, 4 hr + 20 hr recovery): 3.42%
- % MN (TK6 cells [1]; 280 μg/ml, 4 hr + 20 hr recovery): 3.80%
- statistically significant % MN increase relative to controls (TK6 cells [1]; definitive study): over twofold
- % Relative Survival (TK6 cells [2]; 1 μg/ml): 97.79%
- % Relative Survival (TK6 cells [2]; 20 μg/ml): 64.12%
- % Relative Survival (TK6 cells [2]; 280 μg/ml): 53.91%
- GADD45A fold change vs vehicle control (+S9) (GADD45A; [9]): 1.2 fold change
- GADD45A fold change vs vehicle control (+S9) (GADD45A; [10]): 1.7 fold change
- GADD45A fold change vs vehicle control (+S9) (GADD45A; [11]): 2.0 fold change
- Dendogram TGx‐28.65 ([3]; 1 μg/ml): +
- NSC TGx‐28.65 ([3]; 1 μg/ml): −
- PCA TGx‐28.65 ([3]; 1 μg/ml): −
- Dendogram TGx‐28.65 ([3]; 20 μg/ml): +
- NSC TGx‐28.65 ([3]; 20 μg/ml): +
- PCA TGx‐28.65 ([3]; 20 μg/ml): +
- Dendogram TGx‐28.65 ([3]; 280 μg/ml): +
- NSC TGx‐28.65 ([3]; 280 μg/ml): +
- PCA TGx‐28.65 ([3]; 280 μg/ml): +
- classification using TGx‐28.65 ([3]; low concentrations): non‐genotoxic
- classification by hierarchical cluster analysis (TGx‐28.65 genes) ([3]; lowest concentration): genotoxic
- classification using TGx‐28.65 ([3]; mid and high concentrations): genotoxic
- ATF3 fold change vs vehicle control (+S9) (ATF3; 1 μg/ml): 1.1 fold change
- ATF3 fold change vs vehicle control (+S9) (ATF3; 20 μg/ml): 1.6 fold change
- ATF3 fold change vs vehicle control (+S9) (ATF3; 280 μg/ml): 2.3 fold change
- % Apoptotic cells (TK6 cells [4]; 1 μg/ml): 9.74%
- % Apoptotic cells (TK6 cells [4]; 20 μg/ml): 16.82%
- % Apoptotic cells (TK6 cells [4]; 280 μg/ml): 31.79%

SMILES: CN(C)N=O [Dimethylnitrosamine]
- CDKN1A fold change vs vehicle control (+S9) (CDKN1A; [12]): 1.0 fold change
- CDKN1A fold change vs vehicle control (+S9) (CDKN1A; [13]): 1.3 fold change
- CDKN1A fold change vs vehicle control (+S9) (CDKN1A; [14]): 1.2 fold change
- induction of genes in the stress response panel [7]: did not induce any of the genes
- change in % MN relative to DMSO controls (TK6 cells [1]): Significant increases
- % MN (TK6 cells [1]; 1 mM, 4 hr + 20 hr recovery): 1.15%
- % MN (TK6 cells [1]; 5 mM, 4 hr + 20 hr recovery): 2.29%
- % MN (TK6 cells [1]; 10 mM, 4 hr + 20 hr recovery): 2.80%
- statistically significant % MN increase relative to controls (TK6 cells [1]; definitive study): over twofold
- change in RS relative to DMSO controls (TK6 cells [2]): declines
- % Relative Survival (TK6 cells [2]; 1 mM): 76.40%
- % Relative Survival (TK6 cells [2]; 5 mM): 72.92%
- % Relative Survival (TK6 cells [2]; 10 mM): 45.65%
- GADD45A fold change vs vehicle control (+S9) (GADD45A; [12]): 1.0 fold change
- GADD45A fold change vs vehicle control (+S9) (GADD45A; [13]): 1.2 fold change
- GADD45A fold change vs vehicle control (+S9) (GADD45A; [14]): 1.5 fold change
- Dendogram TGx‐28.65 ([3]; 1 mM): −
- NSC TGx‐28.65 ([3]; 1 mM): −
- PCA TGx‐28.65 ([3]; 1 mM): −
- Dendogram TGx‐28.65 ([3]; 5 mM): +
- NSC TGx‐28.65 ([3]; 5 mM): +
- PCA TGx‐28.65 ([3]; 5 mM): +
- Dendogram TGx‐28.65 ([3]; 10 mM): +
- NSC TGx‐28.65 ([3]; 10 mM): +
- PCA TGx‐28.65 ([3]; 10 mM): +
- hierarchical cluster analysis with TGx‐28.65 ([3]; 10% Aroclor‐induced S9, lowest concentration (1 mM)): on the same branch as non‐genotoxic agents
- classification using TGx‐28.65 ([3]; low concentrations): non‐genotoxic
- classification using TGx‐28.65 ([3]; mid and high concentrations): genotoxic
- ATF3 fold change vs vehicle control (+S9) (ATF3; 1 mM): 0.8 fold change
- ATF3 fold change vs vehicle control (+S9) (ATF3; 5 mM): 0.8 fold change
- ATF3 fold change vs vehicle control (+S9) (ATF3; 10 mM): 0.8 fold change
- % Apoptotic cells (TK6 cells [4]; 1 mM): 8.47%
- % Apoptotic cells (TK6 cells [4]; 5 mM): 12.27%
- % Apoptotic cells (TK6 cells [4]; 10 mM): 30.63%

SMILES: c1ccc2c(c1)ccc1ccccc12 [Phenanthrene]
- increase in % MN (TK6 cells [1]): no significant increase
- % Relative Survival (TK6 cells [2]; 8 μg/ml): 94.13%
- % Relative Survival (TK6 cells [2]; 40 μg/ml): 65.32%
- % Relative Survival (TK6 cells [2]; 100 μg/ml): 38.91%
- % Relative Survival (TK6 cells [2]; 100 μg/ml, listed as phenanthrene): ~40%
- Dendogram TGx‐28.65 ([3]; 8 μg/ml): −
- NSC TGx‐28.65 ([3]; 8 μg/ml): −
- PCA TGx‐28.65 ([3]; 8 μg/ml): −
- Dendogram TGx‐28.65 ([3]; 40 μg/ml): −
- NSC TGx‐28.65 ([3]; 40 μg/ml): −
- PCA TGx‐28.65 ([3]; 40 μg/ml): −
- Dendogram TGx‐28.65 ([3]; 100 μg/ml): −
- NSC TGx‐28.65 ([3]; 100 μg/ml): −
- PCA TGx‐28.65 ([3]; 100 μg/ml): −
- % Apoptotic cells (TK6 cells [4]; 8 μg/ml): 10.60%
- % Apoptotic cells (TK6 cells [4]; 40 μg/ml): 14.71%
- % Apoptotic cells (TK6 cells [4]; 100 μg/ml): 26.73%

SMILES: OC[C@H]1O[C@@](CO)(O[C@H]2O[C@H](CO)[C@@H](O)[C@H](O)[C@H]2O)[C@@H](O)[C@@H]1O [Sucrose]
- CDKN1A fold change vs vehicle control (+S9) (CDKN1A): 0.4 fold change
- % MN (TK6 cells [1]; 1 mM, 4 hr + 20 hr recovery): 0.94%
- % MN (TK6 cells [1]; 10 mM, 4 hr + 20 hr recovery): 0.97%
- increase in % MN (TK6 cells [1]; definitive study, 2% Aroclor‐induced S9): no significant increase
- % Relative Survival (TK6 cells [2]; 1 mM): 95.04%
- % Relative Survival (TK6 cells [2]; 10 mM): 90.93%
- GADD45A fold change vs vehicle control (+S9) (GADD45A): 0.8 fold change
- Dendogram TGx‐28.65 ([3]; 1 mM): −
- NSC TGx‐28.65 ([3]; 1 mM): −
- PCA TGx‐28.65 ([3]; 1 mM): −
- Dendogram TGx‐28.65 ([3]; 10 mM): −
- NSC TGx‐28.65 ([3]; 10 mM): −
- PCA TGx‐28.65 ([3]; 10 mM): −
- % Apoptotic cells (TK6 cells [4]; 1 mM): 8.98%
- % Apoptotic cells (TK6 cells [4]; 10 mM): 9.75%

SMILES: N.N.[Cl][Pt][Cl] [cisplatin]
- classification using TGx‐28.65 ([6]; in the presence and absence of S9, ref Buick et al.): accurately classified the genotoxicity

SMILES: CC(C)OS(C)(=O)=O [isopropyl methanesulfonate]
- classification using TGx‐28.65 ([6]; TK6 cells, biomarker development study, ref Li et al.): genotoxic
